According to ChEMBL document CHEMBL1158202, “Plakortides, novel cyclic peroxides from the sponge Plakortis halichondrioides: activators of cardiac SR-CA(2+)-pumping ATPase” (J Nat Prod, 1996):
The source made the active and inactive calls. The calls are words filed in the database; no cut-off is given here.

Species: Canis lupus familiaris
Assay: Induction of Ca2+ uptake in sarcoplasmic reticular-vesicle isolated from dog cardiac ventricle at 10 to 100 uM by fluorimetric method
Type: functional, tissue-based

**Q.** How did the Activity turn out when `CC/C=C/C(CC)C/C(C)=C/[C@]1(CC)C[C@H](CC)[C@H](CC(=O)OC)OO1` (some centres undefined) was run?
**A.** Active

**Q.** `CC/C=C/C(CC)CCC[C@]1(CC)C[C@H](CC)[C@H](CC(=O)OC)OO1` (some centres undefined) was tested. Which Activity did it give?
**A.** Active

**Q.** With `CC/C=C/C(CC)C[C@@]1(C)C[C@@H](CC)[C@H](CC(=O)OC)OO1` (some centres undefined) as the compound, how does the Activity read?
**A.** Active

**Q.** Which Activity does the source give for `CC/C=C/C(CC)CCC[C@@]1(CC)C[C@H](CC)[C@H](CC(=O)OC)OO1` (some centres undefined) here?
**A.** Active
